Measured values from patent publication EP4752149A1, “OXYGEN-CONTAINING FUSED TRICYCLIC DERIVATIVE, AND PREPARATION METHOD THEREFOR AND USE THEREOF” (Tuojie Biotech (Shanghai) Co., Ltd., priority 2023, dated 2025).

Assays:
[1] = test system: Triple-negative breast cancer cells (HCC1806); assay: Inhibitory activity against triple-negative breast cancer cells (HCC1806), CTG cell viability; type: cell-based; details: Homo sapiens, 168 h, 7 days with compound
Description: Triple-negative breast cancer cells (HCC1806, Nanjing Cobioer Biosciences Co., Ltd.) were cultured using an RPMI 1640 culture medium containing 10% FBS in a cell incubator (37 °C, 5% CO2). On day one, the cells were plated in a 384-well plate at a cell concentration of 200 cells/well and cultured overnight in an incubator. On day two, the cells were treated with compounds. The highest compound concentration was 10 µM and was diluted 3-fold to obtain 9 concentrations, and the final concentration of DMSO was 0.2%. After the cells were cultured in the incubator for another 7 days, the cell viability was tested using a CTG Cell Viability Detection Reagent (MCE); the testing method was consistent with the method provided by the kit. Data were processed using XLfit, and IC50 was calculated. [formula] X: the logarithm of the compound concentration; Y: inhibition%. Table 4. The IC50 (nM) of compounds of the present disclosure against HCC1806

[2] = test system: Ovarian cancer cells (OVCAR3); assay: Inhibitory activity against ovarian cancer cells (OVCAR3), CTG cell viability; type: cell-based; details: Homo sapiens, OVCAR-3, 168 h, 7 days with compound
Description: Ovarian cancer cells (OVCAR3) were cultured using an RPMI 1640 culture medium containing 10% FBS in a cell incubator (37 °C, 5% CO2). On day one, the cells were plated in a 384-well plate at a cell concentration of 800 cells/well and cultured overnight in an incubator. On day two, the cells were treated with compounds. The highest compound concentration was 10 µM and was diluted 3-fold to obtain 9 concentrations, and the final concentration of DMSO was 0.1%. After the cells were cultured in the incubator for another 7 days, the cell viability was tested using a CTG Cell Viability Detection Reagent (MCE); the testing method was consistent with the method provided by the kit. Data were processed using GraphPad Prism 8, and IC50 was calculated. [formula] X: the logarithm of the compound concentration; Y: inhibition%. Table 2. The IC50 (nM) of compounds of the present disclosure against OVCAR3

C[C@H]1COc2c(-c3nc(Nc4ccc(N5CCNCC5=O)cc4F)ncc3Cl)cc(F)c3nc(C(C)(C)O)n1c23 [Example 23, (S)-1-(4-((5-Chloro-4-(8-fluoro-2-(2-hydroxypropan-2-yl)-3-methyl-3,4-dihydro-5-oxa-1,2a-diazaacenaphthylen-6-yl)pyrimidin-2-yl)amino)3-fluorophenyl)piperazin-2-one] gave an IC50 [1] of 386 nM.
C[C@H]1COc2c(-c3nc(Nc4ccc(N5CCOCC5=O)cc4F)ncc3Cl)cc(F)c3nc(C4(O)CCCC4)n1c23 [Example 44, (S)-4-(4-((5-Chloro-4-(8-fluoro-2-(1-hydroxycyclopentyl)-3-methyl-3,4-dihydro-5-oxa-1,2a-diazaacenaphthylen-6-yl)pyrimidin-2-yl)amino)-3-fluorophenyl)morpholin-3-one] gave an IC50 [2] of 574 nM and an IC50 [1] of 199 nM.
C[C@H]1COc2c(-c3nc(Nc4ccc(N5CCOCC5=O)cc4F)ncc3F)cc(F)c3nc(C(C)(C)O)n1c23 [Example 4, (S)-4-(3-Fluoro-4-((5-fluoro-4-(8-fluoro-2-(2-hydroxypropan-2-yl)-3-methyl-3,4-dihydro-5-oxa-1,2a-diazaacenaphthylen-6-yl)pyrimidin-2-yl)amino)phenyl)morpholin-3-one] gave an IC50 [2] of 348 nM and an IC50 [1] of 278 nM.
Work on CNS(=O)(=O)c1ccc(Nc2ncc(Cl)c(-c3cc(F)c4nc(C(C)(C)O)n5c4c3OC[C@@H]5C)n2)c(F)c1 [Example 7, (S)-4-((5-Chloro-4-(8-fluoro-2-(2-hydroxypropan-2-yl)-3-methyl-3,4-dihydro-5-oxa-1,2a-diazaacenaphthylen-6-yl)pyrimidin-2-yl)amino)-3-fluoro-N-methylbenzenesulfonamide] yielded an IC50 [2] of 670 nM and an IC50 [1] of 342 nM.
CNC(=O)c1ccc(Nc2ncc(F)c(-c3cc(F)c4nc(C(C)(C)O)n5c4c3OC[C@@H]5C)n2)cc1 [Example 3, (S)-4-((5-Fluoro-4-(8-fluoro-2-(2-hydroxypropan-2-yl)-3-methyl-3,4-dihydro-5-oxa-1,2a-diazaacenaphthylen-6-yl)pyrimidin-2-yl)amino)-N-methylbenzamide] gave an IC50 [2] of 197 nM and an IC50 [1] of 172 nM.
C[C@H]1COc2c(-c3nc(Nc4ccc(S(C)(=N)=O)cc4F)ncc3F)cc(F)c3nc(C(C)(C)O)n1c23 (stereo partly drawn) [Example 15, (3-Fluoro-4-((5-fluoro-4-((S)-8-fluoro-2-(2-hydroxypropan-2-yl)-3-methyl-3,4-dihydro-5-oxa-1,2a-diazaacenaphthylen-6-yl)pyrimidin-2-yl)amino)phenyl)(methyl)sulfonimide] showed an IC50 [2] of 636 nM.
Compound Cc1nc2c(F)cc(-c3nc(Nc4ccc(N5CCOCC5=O)cc4F)ncc3F)c3c2n1[C@@H](C)CO3 [Example 6, (S)-4-(3-Fluoro-4-((5-fluoro-4-(8-fluoro-2,3-dimethyl-3,4-dihydro-5-oxa-1,2a-diazaacenaphthylen-6-yl)pyrimidin-2-yl)amino)phenyl)morpholin-3-one] has an IC50 [2] of 80.2 nM.
In the case of C[C@H]1COc2c(-c3nc(Nc4ccc(C(=O)N5CC[C@H](N(C)C)C5)cc4)ncc3Cl)cc(F)c3nc(C(C)(C)O)n1c23 [Example 40, (4-((5-Chloro-4-((S)-8-fluoro-2-(2-hydroxypropan-2-yl)-3-methyl-3,4-dihydro-5-oxa-1,2a-diazaacenaphthylen-6-yl)pyrimidin-2-yl)amino)phenyl)((S)-3-(dimethylamino)pyrrolidin-1-yl)methanone], the IC50 [2] is reported as 364 nM.
In the case of CNS(=O)(=O)c1ccc(Nc2ncc(F)c(-c3cc(F)c4nc(C(C)(C)O)n5c4c3OC[C@@H]5C)n2)c(F)c1 [Example 16, (S)-3-Fluoro-4-((5-fluoro-4-(8-fluoro-2-(2-hydroxypropan-2-yl)-3-methyl-3,4-dihydro-5-oxa-1,2a-diazaacenaphthylen-6-yl)pyrimidin-2-yl)amino)-N-methylbenzenesulfonamide], the IC50 [2] is reported as 222 nM.
Work on COCc1nc2c(F)cc(-c3nc(Nc4ccc(N5CCOCC5=O)cc4F)ncc3F)c3c2n1[C@@H](C)CO3 [Example 26, (S)-4-(3-Fluoro-4-((5-fluoro-4-(8-fluoro-2-(methoxymethyl)-3-methyl-3,4-dihydro-5-oxa-1,2a-diazaacenaphthylen-6-yl)pyrimidin-2-yl)amino)phenyl)morpholin-3-one] yielded an IC50 [2] of 517 nM.
Work on CNS(=N)(=O)c1ccc(Nc2ncc(Cl)c(-c3cc(F)c4nc(C(C)(C)O)n5c4c3OC[C@@H]5C)n2)c(F)c1 (stereo partly drawn) [Example 9, 4-((5-Chloro-4-((S)-8-fluoro-2-(2-hydroxypropan-2-yl)-3-methyl-3,4-dihydro-5-oxa-1,2a-diazaacenaphthylen-6-yl)pyrimidin-2-yl)amino)-3-fluoro-N-methylbenzenesulfonimide] yielded an IC50 [2] of 752 nM.
Work on C[C@H]1COc2c(-c3nc(Nc4ccc(N5CCOCC5=O)cc4F)ncc3F)cc(F)c3nc(C4(O)CCC4)n1c23 [Example 28, (S)-4-(3-Fluoro-4-((5-fluoro-4-(8-fluoro-2-(1-hydroxycyclobutyl)-3-methyl-3,4-dihydro-5-oxa-1,2a-diazaacenaphthylen-6-yl)pyrimidin-2-yl)amino)phenyl)morpholin-3-one] yielded an IC50 [2] of 137 nM.
For CC(C)c1nc2c(F)cc(-c3nc(Nc4ccc(N5CCOCC5=O)cc4F)ncc3F)c3c2n1[C@@H](C)CO3 [Example 27, (S)-4-(3-Fluoro-4-((5-fluoro-4-(8-fluoro-2-isopropyl-3-methyl-3,4-dihydro-5-oxa-1,2a-diazaacenaphthylen-6-yl)pyrimidin-2-yl)amino)phenyl)morpholin-3-one], the IC50 [2] was 572 nM and the IC50 [1] was 303 nM.
In the case of CNS(=O)(=O)c1ccc(Nc2ncc(Cl)c(-c3cc(F)c4nc(C(C)(C)O)n5c4c3OC[C@@H]5C)n2)cc1 [Example 5, (S)-4-((5-Chloro-4-(8-fluoro-2-(2-hydroxypropan-2-yl)-3-methyl-3,4-dihydro-5-oxa-1,2a-diazaacenaphthylen-6-yl)pyrimidin-2-yl)amino)-N-methylbenzenesulfonamide], the IC50 [2] is reported as 89.9 nM.
In the case of CC(O)c1nc2c(F)cc(-c3nc(Nc4ccc(N5CCOCC5=O)cc4F)ncc3F)c3c2n1[C@@H](C)CO3 (stereo partly drawn) [Example 21, 4-(3-Fluoro-4-((5-fluoro-4-((3S)-8-fluoro-2-(1-hydroxyethyl)-3-methyl-3,4-dihydro-5-oxa-1,2a-diazaacenaphthylen-6-yl)pyrimidin-2-yl)amino)phenyl)morpholin-3-one], the IC50 [2] is reported as 260 nM.
Compound C[C@H]1COc2c(-c3nc(Nc4ccc(S(C)(=N)=O)cc4)ncc3F)cc(F)c3nc(C(C)(C)O)n1c23 (stereo partly drawn) [Example 17, (4-((5-Fluoro-4-((S)-8-fluoro-2-(2-hydroxypropan-2-yl)-3-methyl-3,4-dihydro-5-oxa-1,2a-diazaacenaphthylen-6-yl)pyrimidin-2-yl)amino)phenyl)(methyl)sulfonimide] has an IC50 [2] of 154 nM.
In the case of COC(C)c1nc2c(F)cc(-c3nc(Nc4ccc(N5CCOCC5=O)cc4F)ncc3F)c3c2n1[C@@H](C)CO3 (stereo partly drawn) [Example 22, 4-(3-Fluoro-4-((5-fluoro-4-((3S)-8-fluoro-2-(1-methoxyethyl)-3-methyl-3,4-dihydro-5-oxa-1,2a-diazaacenaphthylen-6-yl)pyrimidin-2-yl)amino)phenyl)morpholin-3-one], the IC50 [2] is reported as 825 nM and the IC50 [1] is reported as 406 nM.
C[C@H]1COc2c(-c3nc(Nc4ccc(N5CCOCC5=O)cc4)ncc3F)cc(F)c3nc(C(C)(C)O)n1c23 [Example 18, (S)-4-(4-((5-Fluoro-4-(8-fluoro-2-(2-hydroxypropan-2-yl)-3-methyl-3,4-dihydro-5-oxa-1,2a-diazaacenaphthylen-6-yl)pyrimidin-2-yl)amino)phenyl)morpholin-3-one] was tested, and the IC50 [2] was 103 nM.
For CCN1CCN(C(=O)c2ccc(Nc3ncc(Cl)c(-c4cc(F)c5nc(C(C)(C)O)n6c5c4OC[C@@H]6C)n3)cc2F)CC1 [Example 32, (S)-(4-((5-Chloro-4-(8-fluoro-2-(2-hydroxypropan-2-yl)-3-methyl-3,4-dihydro-5-oxa-1,2a-diazaacenaphthylen-6-yl)pyrimidin-2-yl)amino)-2-fluorophenyl)(4-ethylpiperazin-1-yl)methanone], the IC50 [2] was 426 nM.
Work on C[C@H]1COc2c(-c3nc(Nc4ccc(N5CCOCC5=O)cc4)ncc3Cl)cc(F)c3nc(C(C)(C)O)n1c23 [Example 10, (S)-4-(4-((5-Chloro-4-(8-fluoro-2-(2-hydroxypropan-2-yl)-3-methyl-3,4-dihydro-5-oxa-1,2a-diazaacenaphthylen-6-yl)pyrimidin-2-yl)amino)phenyl)morpholin-3-one] yielded an IC50 [2] of 230 nM.
Work on C[C@H]1COc2c(-c3nc(Nc4ccc(N5CCOCC5=O)cc4F)ncc3F)cc(F)c3ncn1c23 [Example 2, (S)-4-(3-Fluoro-4-((5-fluoro-4-(8-fluoro-3-methyl-3,4-dihydro-5-oxa-1,2a-diazaacenaphthylen-6-yl)pyrimidin-2-yl)amino)phenyl)morpholin-3-one] yielded an IC50 [2] of 47.5 nM.
For C[C@H]1COc2c(-c3nc(Nc4ccc(N5CCC(N(C)C)CC5=O)cc4F)ncc3Cl)cc(F)c3nc(C(C)(C)O)n1c23 (stereo partly drawn) [Example 12, 1-(4-((5-Chloro-4-((S)-8-fluoro-2-(2-hydroxypropan-2-yl)-3-methyl-3,4-dihydro-5-oxa-1,2a-diazaacenaphthylen-6-yl)pyrimidin-2-yl)amino)-3-fluorophenyl)-4-(dimethylamino)piperidin-2-one], the IC50 [2] was 643 nM.
